From US11178873B2, “Cyclic N-carboxamide compounds useful as herbicides” (FMC CORPORATION, priority 2015, dated 2021)

Key:
Type in all cases: in vivo
[1] = tested on: barnyardgrass (Echinochloa crus-galli); assay: Test B flooded paddy test, barnyardgrass; settings: Flood, scale 0 to 100 (0 no effect, 100 complete control), 13 to 15 d
Description: (§1) Plant species in the flooded paddy test selected from rice (Oryza sativa), sedge, umbrella (small-flower umbrella sedge, Cyperus difformis), ducksalad (Heteranthera limosa), and barnyardgrass (Echinochloa crus-galli) were grown to the 2-leaf stage for testing. At time of treatment, test pots were flooded to 3 cm above the soil surface, treated by application of test compounds directly to the paddy water, and then maintained at that water depth for the duration of the test. Treated plants and controls were maintained in a greenhouse for 13 to 15 d, after which time all species were compared to controls and visually evaluated. Plant response ratings, summarized in Table B, are based on a scale of 0 to 100 where 0 is no effect and 100 is complete control. A dash (-) response means no test result.

[2] = tested on: pigweed (Amaranthus retroflexus); assay: Test A postemergence, pigweed; settings: 0 to 100 scale, 0 no effect, 100 complete control
Text: (§2) Seeds of plant species selected from barnyardgrass (Echinochloa crus-galli), crabgrass, large (large crabgrass, Digitaria sanguinalis), kochia (Kochia scoparia), ragweed (common ragweed, Ambrosia elatior), morningglory (Ipomoea spp.), velvetleaf (Abutilon theophrasti), ryegrass, Italian (Italian ryegrass, Lolium multiflorum), foxtail, giant (giant foxtail, Setaria faberii), wheat (Triticum aestivum), corn (Zea mays), and pigweed (Amaranthus retroflexus), were planted into a blend of loam soil and sand and treated preemergence with a directed soil spray using test chemicals formulated in a non-phytotoxic solvent mixture which included a surfactant. At the same time, plants selected from these crop and weed species and also blackgrass (Alopecurus myosuroides), and galium (catchweed bedstraw, Galium aparine), were planted in pots containing the same blend of loam soil and sand and treated with postemergence applications of test chemicals formulated in the same manner. Plants ranged in height from 2 to 10 cm and were in the one- to two-leaf stage for the postemergence treatment. Treated plants and untreated controls were maintained in a greenhouse for approximately 10 d, after which time all treated plants were compared to untreated controls and visually evaluated for injury. Plant response ratings, summarized in Table A, are based on a 0 to 100 scale where 0 is no effect and 100 is complete control. A dash (-) response means no test result.

[3] = tested on: wheat (Triticum aestivum); assay: Test A postemergence, wheat; settings: 0 to 100 scale, 0 no effect, 100 complete control
Text: as §2

[4] = tested on: foxtail, giant (giant foxtail, Setaria faberii); assay: Test A preemergence, foxtail, giant; settings: 0 to 100 scale, 0 no effect, 100 complete control
Text: as §2

[5] = tested on: ragweed (common ragweed, Ambrosia elatior); assay: Test A postemergence, ragweed; settings: 0 to 100 scale, 0 no effect, 100 complete control
Text: as §2

kochia (Kochia scoparia) [6] = assay: Test A postemergence, kochia; settings: 0 to 100 scale, 0 no effect, 100 complete control
Text: as §2

[7] = tested on: barnyardgrass (Echinochloa crus-galli); assay: Test A preemergence, barnyardgrass; settings: 0 to 100 scale, 0 no effect, 100 complete control
Text: as §2

[8] = tested on: galium (catchweed bedstraw, Galium aparine); assay: Test A postemergence, galium; settings: 0 to 100 scale, 0 no effect, 100 complete control
Text: as §2

[9] = tested on: ragweed (common ragweed, Ambrosia elatior); assay: Test A preemergence, ragweed; settings: 0 to 100 scale, 0 no effect, 100 complete control
Text: as §2

rice (Oryza sativa) = assay: Test B flooded paddy test, rice; settings: Flood, scale 0 to 100 (0 no effect, 100 complete control), 13 to 15 d
Description: as §1

[10] = tested on: sedge, umbrella (small-flower umbrella sedge, Cyperus difformis); assay: Test B flooded paddy test, sedge, umbrella; settings: Flood, scale 0 to 100 (0 no effect, 100 complete control), 13 to 15 d
Description: as §1

[11] = tested on: ducksalad (Heteranthera limosa); assay: Test B flooded paddy test, ducksalad; settings: Flood, scale 0 to 100 (0 no effect, 100 complete control), 13 to 15 d
Description: as §1

[12] = tested on: foxtail, giant (giant foxtail, Setaria faberii); assay: Test A postemergence, foxtail, giant; settings: 0 to 100 scale, 0 no effect, 100 complete control
Text: as §2

[13] = tested on: pigweed (Amaranthus retroflexus); assay: Test A preemergence, pigweed; settings: 0 to 100 scale, 0 no effect, 100 complete control
Text: as §2

[14] = tested on: ryegrass, Italian (Italian ryegrass, Lolium multiflorum); assay: Test A preemergence, ryegrass, Italian; settings: 0 to 100 scale, 0 no effect, 100 complete control
Text: as §2

[15] = tested on: blackgrass (Alopecurus myosuroides); assay: Test A postemergence, blackgrass; settings: 0 to 100 scale, 0 no effect, 100 complete control
Text: as §2

kochia (Kochia scoparia) [16] = assay: Test A preemergence, kochia; settings: 0 to 100 scale, 0 no effect, 100 complete control
Text: as §2

corn (Zea mays) = assay: Test A postemergence, corn; settings: 0 to 100 scale, 0 no effect, 100 complete control
Text: as §2

[17] = tested on: barnyardgrass (Echinochloa crus-galli); assay: Test A postemergence, barnyardgrass; settings: 0 to 100 scale, 0 no effect, 100 complete control
Text: as §2

[18] = tested on: ryegrass, Italian (Italian ryegrass, Lolium multiflorum); assay: Test A postemergence, ryegrass, Italian; settings: 0 to 100 scale, 0 no effect, 100 complete control
Text: as §2

SMILES | Plant response rating, Pigweed ([2]; 125 g ai/ha) | Plant response rating, Pigweed ([2]; 500 g ai/ha) | Plant response rating, Wheat ([3]; 125 g ai/ha) | Plant response rating, Wheat ([3]; 500 g ai/ha) | Plant response rating, Foxtail, Giant ([4]; 125 g ai/ha) | Plant response rating, Foxtail, Giant ([4]; 500 g ai/ha) | Plant response rating, Ragweed ([5]; 125 g ai/ha) | Plant response rating, Ragweed ([5]; 500 g ai/ha) | Plant response rating, Kochia (kochia (Kochia scoparia) [6]; 125 g ai/ha) | Plant response rating, Barnyardgrass ([7]; 125 g ai/ha) | Plant response rating, Galium ([8]; 125 g ai/ha) | Plant response rating, Ragweed ([9]; 125 g ai/ha) | Plant response rating, Foxtail, Giant ([12]; 125 g ai/ha) | Plant response rating, Pigweed ([13]; 125 g ai/ha) | Plant response rating, Ryegrass, Italian ([14]; 125 g ai/ha) | Plant response rating, Blackgrass ([15]; 125 g ai/ha) | Plant response rating, Kochia (kochia (Kochia scoparia) [16]; 125 g ai/ha) | Plant response rating, Corn (corn (Zea mays); 125 g ai/ha) | Plant response rating, Barnyardgrass ([17]; 125 g ai/ha) | Plant response rating, Ryegrass, Italian ([18]; 125 g ai/ha) | other results
O=C1NCC(c2ccc(F)c(F)c2)N1C(=O)Nc1ccccc1C(F)(F)F (stereo not drawn) [Compound 10] | 0 | 0 | 0 | 0 | 20 | 60 | 0 | 0 | 0 | 0 | 0 | 0 | 0 | 0 | 0 | 0 | 0 | 0 | 0 | 0 | Plant response rating, Barnyardgrass ([1]; 500 g ai/ha): 0; Plant response rating, Kochia (kochia (Kochia scoparia) [6]; 500 g ai/ha): 0; Plant response rating, Barnyardgrass ([7]; 500 g ai/ha): 0; Plant response rating, Galium ([8]; 500 g ai/ha): 0; Plant response rating, Ragweed ([9]; 500 g ai/ha): 0; Plant response rating, Rice (rice (Oryza sativa); 500 g ai/ha): 0; Plant response rating, Sedge, Umbrella ([10]; 500 g ai/ha): 0; Plant response rating, Ducksalad ([11]; 500 g ai/ha): 0; Plant response rating, Foxtail, Giant ([12]; 500 g ai/ha): 40; Plant response rating, Pigweed ([13]; 500 g ai/ha): 0; Plant response rating, Ryegrass, Italian ([14]; 500 g ai/ha): 0; Plant response rating, Blackgrass ([15]; 500 g ai/ha): 0; Plant response rating, Kochia (kochia (Kochia scoparia) [16]; 500 g ai/ha): 0; Plant response rating, Corn (corn (Zea mays); 500 g ai/ha): 0; Plant response rating, Barnyardgrass ([17]; 500 g ai/ha): 0; Plant response rating, Ryegrass, Italian ([18]; 500 g ai/ha): 0
O=C1NCC(c2ccc(F)c(F)c2)N1C(=O)Nc1ccccc1F (stereo not drawn) [Compound 8] | 0 | 0 | 0 | 0 | 0 | 0 | 0 | 0 | 0 | 0 | 0 | 0 | 0 | 0 | 0 | 0 | 0 | 0 | 0 | 0 | Plant response rating, Barnyardgrass ([1]; 500 g ai/ha): 0; Plant response rating, Kochia (kochia (Kochia scoparia) [6]; 500 g ai/ha): 0; Plant response rating, Barnyardgrass ([7]; 500 g ai/ha): 0; Plant response rating, Galium ([8]; 500 g ai/ha): 0; Plant response rating, Ragweed ([9]; 500 g ai/ha): 0; Plant response rating, Rice (rice (Oryza sativa); 500 g ai/ha): 0; Plant response rating, Sedge, Umbrella ([10]; 500 g ai/ha): 0; Plant response rating, Ducksalad ([11]; 500 g ai/ha): 40; Plant response rating, Foxtail, Giant ([12]; 500 g ai/ha): 0; Plant response rating, Pigweed ([13]; 500 g ai/ha): 0; Plant response rating, Ryegrass, Italian ([14]; 500 g ai/ha): 0; Plant response rating, Blackgrass ([15]; 500 g ai/ha): 0; Plant response rating, Kochia (kochia (Kochia scoparia) [16]; 500 g ai/ha): 0; Plant response rating, Corn (corn (Zea mays); 500 g ai/ha): 0; Plant response rating, Barnyardgrass ([17]; 500 g ai/ha): 0; Plant response rating, Ryegrass, Italian ([18]; 500 g ai/ha): 0
O=C1NCC(c2ccccc2)N1C(=O)Nc1ccccc1F (stereo not drawn) [Compound 5] | 0 | 0 | 0 | 0 | 0 | 0 | 0 | 0 | 0 | 0 | 0 | 0 | 0 | 0 | 0 | 0 | 0 | 0 | 0 | 0 | Plant response rating, Barnyardgrass ([1]; 1000 g ai/ha): 0; Plant response rating, Kochia (kochia (Kochia scoparia) [6]; 500 g ai/ha): 0; Plant response rating, Barnyardgrass ([7]; 500 g ai/ha): 0; Plant response rating, Galium ([8]; 500 g ai/ha): 0; Plant response rating, Ragweed ([9]; 500 g ai/ha): 0; Plant response rating, Rice (rice (Oryza sativa); 1000 g ai/ha): 0; Plant response rating, Sedge, Umbrella ([10]; 1000 g ai/ha): 0; Plant response rating, Ducksalad ([11]; 1000 g ai/ha): 90; Plant response rating, Foxtail, Giant ([12]; 500 g ai/ha): 0; Plant response rating, Pigweed ([13]; 500 g ai/ha): 0; Plant response rating, Ryegrass, Italian ([14]; 500 g ai/ha): 0; Plant response rating, Blackgrass ([15]; 500 g ai/ha): 0; Plant response rating, Kochia (kochia (Kochia scoparia) [16]; 500 g ai/ha): 0; Plant response rating, Corn (corn (Zea mays); 500 g ai/ha): 0; Plant response rating, Barnyardgrass ([17]; 500 g ai/ha): 0; Plant response rating, Ryegrass, Italian ([18]; 500 g ai/ha): 0
O=C1NCC(c2ccc(F)c(F)c2)N1C(=O)Nc1ccccc1 (stereo not drawn) [Compound 7] | 0 | 0 | 0 | 0 | 0 | 0 | 0 | 0 | 0 | 0 | 0 | 0 | 0 | 0 | 0 | 0 | 0 | 0 | 0 | 0 | Plant response rating, Barnyardgrass ([1]; 1000 g ai/ha): 0; Plant response rating, Kochia (kochia (Kochia scoparia) [6]; 500 g ai/ha): 0; Plant response rating, Barnyardgrass ([7]; 500 g ai/ha): 0; Plant response rating, Galium ([8]; 500 g ai/ha): 0; Plant response rating, Ragweed ([9]; 500 g ai/ha): 0; Plant response rating, Rice (rice (Oryza sativa); 1000 g ai/ha): 0; Plant response rating, Sedge, Umbrella ([10]; 1000 g ai/ha): 0; Plant response rating, Ducksalad ([11]; 1000 g ai/ha): 0; Plant response rating, Foxtail, Giant ([12]; 500 g ai/ha): 0; Plant response rating, Pigweed ([13]; 500 g ai/ha): 0; Plant response rating, Ryegrass, Italian ([14]; 500 g ai/ha): 0; Plant response rating, Blackgrass ([15]; 500 g ai/ha): 0; Plant response rating, Kochia (kochia (Kochia scoparia) [16]; 500 g ai/ha): 0; Plant response rating, Corn (corn (Zea mays); 500 g ai/ha): 0; Plant response rating, Barnyardgrass ([17]; 500 g ai/ha): 0; Plant response rating, Ryegrass, Italian ([18]; 500 g ai/ha): 0
O=C1CCC(c2ccc(Cl)cc2)N1C(=O)Nc1ccccc1C(F)(F)F (stereo not drawn) [Compound 23] | 0 |  | 0 |  | 0 |  | 0 |  | 0 | 0 | 0 | 0 | 0 | 0 | 0 | 0 | 0 | 0 | 0 | 0 | Plant response rating, Barnyardgrass ([1]; 250 g ai/ha): 0; Plant response rating, Pigweed ([2]; 31 g ai/ha): 0; Plant response rating, Wheat ([3]; 31 g ai/ha): 0; Plant response rating, Foxtail, Giant ([4]; 31 g ai/ha): 0; Plant response rating, Ragweed ([5]; 31 g ai/ha): 0; Plant response rating, Kochia (kochia (Kochia scoparia) [6]; 31 g ai/ha): 0; Plant response rating, Barnyardgrass ([7]; 31 g ai/ha): 0; Plant response rating, Galium ([8]; 31 g ai/ha): 0; Plant response rating, Ragweed ([9]; 31 g ai/ha): 0; Plant response rating, Rice (rice (Oryza sativa); 250 g ai/ha): 0; Plant response rating, Sedge, Umbrella ([10]; 250 g ai/ha): 0; Plant response rating, Ducksalad ([11]; 250 g ai/ha): 0; Plant response rating, Foxtail, Giant ([12]; 31 g ai/ha): 0; Plant response rating, Pigweed ([13]; 31 g ai/ha): 0; Plant response rating, Ryegrass, Italian ([14]; 31 g ai/ha): 0; Plant response rating, Blackgrass ([15]; 31 g ai/ha): 0; Plant response rating, Kochia (kochia (Kochia scoparia) [16]; 31 g ai/ha): 0; Plant response rating, Corn (corn (Zea mays); 31 g ai/ha): 0; Plant response rating, Barnyardgrass ([17]; 31 g ai/ha): 0; Plant response rating, Ryegrass, Italian ([18]; 31 g ai/ha): 0
